Article PMC10361207, “Cannabinoid and Opioid Receptor Affinity and Modulation of Cancer-Related Signaling Pathways of Machaeriols and Machaeridiols from Machaerium Pers” (Molecules, 2023)
In brackets after ≈: the same amount, converted by molar mass. Entries after “also recorded” stand apart in the source; their conditions may differ.

Experiments:
[1] = tested on: ETS; assay: Luciferase reporter assay, ETS, HeLa; format: cell-based, human; conditions: Homo sapiens; HeLa cells; inducer PMA; dash: not inhibited by more than 40% at 50 µmol/L
Procedure: (§1) Hela cells (or T98G cells) from ATCC were plated in white opaque 384-well plates at a density of 4300 cells/well in 30 µL of growth medium (DMEM with 10% FBS and 1% Pen/Strep). The next day, the medium was aspirated and replaced with DMEM containing 1% FBS. The cells were transfected with respective plasmids using X-tremeGENE HP DNA transfection reagent (Roche). After 24 h of transfection, the test agents were added to the transfected cells, followed 30 min later by an inducing agent: interleukin 6 (IL-6) for Stat3, TGF-β for Smad, m-wnt3a for Wnt and PMA for AP-1, NF-κB, E2F, Myc, ETS, Notch and Hedgehog. No inducer was added for FoXO and pTK. After 4 h or 6 h of induction, the cells were lysed via the addition of the One-Glo luciferase assay system (Promega; Madison, WI). The light output was detected in a GloMax®-Multi+ Detection System with Instinct® Software (Promega E 8051). This luciferase assay determines if the test agent is able to inhibit the activation of cancer-related signaling pathways. In the case of FoxO, the enhanced luciferase activity via the test agent was assessed.

[2] = tested on: E2F; assay: Luciferase reporter assay, E2F, HeLa; format: cell-based, human; conditions: Homo sapiens, HeLa, read-out: IC50, E2F (PMA)
Procedure: as §1

[3] = tested on: Smad2/3; assay: Luciferase reporter assay, Smad2/3, HeLa; format: cell-based, human; conditions: Homo sapiens; HeLa cells; inducer TGF-beta; dash: not inhibited by more than 40% at 50 µmol/L
Procedure: as §1

[4] = tested on: FoxO; assay: Luciferase reporter assay, FoxO, HeLa; format: cell-based; conditions: Homo sapiens; HeLa cells; no inducer; dash: no activity detected; read-out: IC50, FoxO (None)
Procedure: as §1

[5] = tested on: Notch; assay: Luciferase reporter assay, Notch, HeLa; format: cell-based; conditions: Homo sapiens; HeLa cells; inducer PMA; dash: not inhibited by more than 40% at 50 µmol/L
Procedure: as §1

[6] = target: T1, CB1 receptor (Homo sapiens, UniProt P21554); assay: Competitive radioligand binding assay, CB1; conditions: for Percent displacement, CB1: 10 μM, [3H]-CP55,940
T1 construct: expressed in transfected cells; host or cells: HEK293 (ATCC), stably transfected; membranes
T1 sequence (P21554 whole entry): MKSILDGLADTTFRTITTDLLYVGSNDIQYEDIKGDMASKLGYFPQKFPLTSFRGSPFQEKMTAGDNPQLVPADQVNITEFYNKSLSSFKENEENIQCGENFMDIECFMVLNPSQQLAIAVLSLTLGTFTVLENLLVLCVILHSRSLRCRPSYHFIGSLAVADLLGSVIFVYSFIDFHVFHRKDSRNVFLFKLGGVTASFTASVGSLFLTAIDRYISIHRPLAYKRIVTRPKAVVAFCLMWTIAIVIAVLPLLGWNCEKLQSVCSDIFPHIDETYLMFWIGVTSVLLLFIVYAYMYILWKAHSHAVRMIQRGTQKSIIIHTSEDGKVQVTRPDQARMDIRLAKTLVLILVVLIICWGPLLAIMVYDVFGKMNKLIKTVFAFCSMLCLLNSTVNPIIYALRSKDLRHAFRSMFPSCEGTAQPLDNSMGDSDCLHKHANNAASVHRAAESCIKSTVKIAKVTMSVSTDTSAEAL
Procedure: (§2) HEK293 cells stably transfected with δ, κ and μ opioid subtypes were a generous gift from Roth Laboratories (University of North Carolina at Chapel Hill, N.C., USA). CB and opioid cells were maintained as previously described.
(§3) Membranes were purified by first washing the cells with cold PBS and scraping the cells into cold 50 mM Tris-HCl, pH 7.4 buffer, which was centrifuged at 5200× g for 10 min at 4 °C; next, the supernatant was discarded, and the pellet was washed with more Tris-HCl buffer, homogenized via a Sonic Dismembrator (Fisher Scientific, Pittsburgh, PA, USA) and then centrifuged at 24,000× g for 40 min at 4 °C. Finally, the pellet was re-suspended in cold 50 mM Tris-HCl buffer, aliquoted into 2 mL vials and stored at −80 °C. The total membrane protein concentration was measured using a Pierce BCA Protein Assay Kit (Thermo Scientific, Rockford, IL, USA) as per the manufacturer’s protocol.
(§4) Cannabinoid and opioid competitive radioligand binding assays were performed as previously described. Saturation experiments were performed for all the receptors to determine the receptor concentration and radioligand dissociation constant (Kd) for the membrane. Percent displacements were evaluated for all the cannabinoid and opioid subtypes with a triplicate of a fixed concentration (10 µg/mL for extracts and fractions and 10 μM for purified compounds). […] Control/test compounds were dissolved in DMSO at 10 μg/mL for extracts and fractions and 10 μM for purified compounds. […] The percent displacement was calculated to represent the ability of the samples to displace the radioligand binding for a given cannabinoid or opioid receptor subtype.
(§5) The percent displacement was calculated as follows: 100−binding of compound−nonspecific binding/specific binding×100
(§6) The competitive binding assays were performed using 12 serial dilutions of each compound ranging from 0.002 to 300 μM (control compounds were serially diluted from 10 μM to 0.06 nM). The cannabinoid assays were incubated for 90 min at 37 °C with gentle agitation. The opioid assays were incubated for 60 min at room temperature. Bound radioligands were collected on GF/C (cannabinoid) or GF/B plates (opioid) and washed 10 times with ice-cold 50 mM Tris-HCl (pH 7.4)/0.1% BSA (cannabinoid) or ice-cold 50 mM Tris-HCl (pH 7.4) (opioid). Radiodetection was measured with 50 µL (cannabinoid) or 25 µL (opioid) of MicroScint^TM-20 on a TopCount NXT HTS Microplate Scintillation Counter (PerkinElmer, Waltham, MA, USA). The IC50 and Ki values were calculated via a non-linear curve fit model using GraphPad Prism 5.0 software (GraphPad Software, Inc., San Diego, CA, USA). Each compound was tested in triplicate unless stated otherwise.

[7] = tested on: Stat3; assay: Luciferase reporter assay, Stat3, HeLa; format: cell-based, human; conditions: Homo sapiens; HeLa cells; inducer IL6; dash: not inhibited by more than 40% at 50 µmol/L
Procedure: as §1

[8] = tested on: Myc; assay: Luciferase reporter assay, Myc, HeLa; format: cell-based; conditions: Homo sapiens; HeLa cells; inducer PMA; dash: not inhibited by more than 40% at 50 µmol/L
Procedure: as §1

[9] = tested on: NF-κB; assay: Luciferase reporter assay, NF-κB, HeLa; format: cell-based; conditions: Homo sapiens; HeLa cells; inducer PMA; dash: not inhibited by more than 40% at 50 µmol/L
Procedure: as §1

[10] = target: T2, CB2 receptor (Homo sapiens, UniProt P34972); assay: Competitive radioligand binding assay, CB2; conditions: for Percent displacement, CB2: 10 μM, [3H]-CP55,940; for Ki: * tested up to solubility limit, conc. at 33.3 μM and above precipitated, read-out: CB2 Ki ± SEM
T2 construct: expressed in transfected cells; host or cells: HEK293 (ATCC), stably transfected; membranes
T2 sequence (P34972 whole entry): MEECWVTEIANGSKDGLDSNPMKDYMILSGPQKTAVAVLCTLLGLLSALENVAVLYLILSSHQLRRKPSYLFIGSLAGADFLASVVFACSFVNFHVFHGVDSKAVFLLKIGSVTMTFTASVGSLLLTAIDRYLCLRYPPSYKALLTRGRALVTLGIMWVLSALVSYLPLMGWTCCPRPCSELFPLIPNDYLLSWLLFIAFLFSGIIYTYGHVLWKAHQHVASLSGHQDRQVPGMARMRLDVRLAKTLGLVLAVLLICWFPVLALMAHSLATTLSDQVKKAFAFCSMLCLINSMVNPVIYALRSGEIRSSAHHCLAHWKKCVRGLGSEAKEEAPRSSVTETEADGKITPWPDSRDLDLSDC
Procedure: as §2, §3, §4, §5, §6

[11] = tested on: Hedgehog; assay: Luciferase reporter assay, Hedgehog, HeLa; format: cell-based, human; conditions: Homo sapiens; HeLa cells; inducer PMA; dash: not inhibited by more than 40% at 50 µmol/L
Procedure: as §1

[12] = target: T3, δ opioid receptor (Homo sapiens, UniProt P41143); assay: Competitive radioligand binding assay, δ opioid; conditions: for inhibition at 10 µM: [3H]-enkephalin (DPDPE), read-out: Percent displacement, Δ; for Ki: NA = not active, read-out: Δ Ki ± SEM
T3 construct: host or cells: HEK293, stably transfected; membranes
T3 sequence (P41143 whole entry): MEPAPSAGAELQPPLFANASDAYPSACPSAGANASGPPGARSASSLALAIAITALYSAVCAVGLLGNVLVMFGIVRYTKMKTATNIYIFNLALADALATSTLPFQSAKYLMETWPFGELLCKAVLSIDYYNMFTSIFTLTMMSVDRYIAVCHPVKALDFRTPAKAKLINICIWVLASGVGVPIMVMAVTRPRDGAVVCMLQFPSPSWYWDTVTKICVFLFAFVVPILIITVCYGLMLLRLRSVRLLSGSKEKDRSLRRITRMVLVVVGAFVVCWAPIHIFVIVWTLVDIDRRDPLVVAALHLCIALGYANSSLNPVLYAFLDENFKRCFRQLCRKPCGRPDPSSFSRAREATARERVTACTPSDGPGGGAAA
Procedure: as §2, §3, §4, §5, §6

[13] = tested on: Wnt; assay: Luciferase reporter assay, Wnt, HeLa; format: cell-based; conditions: Homo sapiens; HeLa cells; inducer m-wnt3a; dash: not inhibited by more than 40% at 50 µmol/L
Procedure: as §1

[14] = tested on: AP-1; assay: Luciferase reporter assay, AP-1, HeLa; format: cell-based, human; conditions: Homo sapiens, read-out: IC50, Ap-1 (PMA)
Procedure: as §1

[15] = target: T4, μ opioid receptor (Homo sapiens, UniProt P35372); assay: biochemical; format: binding; conditions: for Percent displacement, µ: 10 μM, [3H]-DAMGO; for Ki: NA = not active, read-out: μ Ki ± SEM
T4 construct: host or cells: HEK293, stably transfected; membranes
T4 sequence (P35372 whole entry): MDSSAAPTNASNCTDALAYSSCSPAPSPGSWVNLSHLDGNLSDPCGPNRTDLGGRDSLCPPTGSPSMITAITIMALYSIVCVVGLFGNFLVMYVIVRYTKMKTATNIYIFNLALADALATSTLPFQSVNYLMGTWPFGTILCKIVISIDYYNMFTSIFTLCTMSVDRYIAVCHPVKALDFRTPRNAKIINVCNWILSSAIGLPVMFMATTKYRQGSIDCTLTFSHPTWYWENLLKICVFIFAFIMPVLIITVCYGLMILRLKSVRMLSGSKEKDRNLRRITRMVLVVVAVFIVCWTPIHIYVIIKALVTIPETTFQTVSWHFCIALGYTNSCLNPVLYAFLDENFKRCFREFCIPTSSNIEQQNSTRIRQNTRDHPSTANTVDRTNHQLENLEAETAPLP
Procedure: as §2, §3, §4, §5, §6

[16] = tested on: cannabinoid receptor 1 (CB1 receptor); conditions: earlier studies; cited from earlier work
[17] = Cytotoxicity, Neutral Red, KB; format: cell-based; conditions: human, KB epidermal carcinoma (oral) cells, Na = not active up to 50 µg/mL
Procedure: (§7) In vitro cytotoxic activity was determined against five human cancer cell lines—malignant melanoma (SK-MEL), epidermal carcinoma oral (KB), ductal carcinoma breast (BT-549), ovary carcinoma (SKOV-3) and cervical (HeLa) cancer cells—and two non-cancerous kidney cell lines (LLC-PK1 and Vero). All cell lines were obtained from the American Type Culture Collection (ATCC, Rockville, MD, USA). Each assay was performed in 96-well tissue culture-treated microplates. The cells were seeded at a density of 25,000 cells/well and incubated for 24 h. Samples at different concentrations were added, and the cells were incubated again for 48 h. At the end of the incubation, the cell viability was determined using Neutral Red dye according to a modification of the procedure used by Borenfreund et al.. IC50 values were determined from dose–response curves of the percent growth inhibition against test concentrations. Doxorubicin was used as a positive control, while DMSO was used as the negative (vehicle) control.

[18] = Cytotoxicity, Neutral Red, SK-MEL; format: cell-based; conditions: human, SK-MEL malignant melanoma cells, Na = not active up to 50 µg/mL
Procedure: as §7

[19] = tested on: SK-MEL, KB, BT-549, SK-OV-3, HeLa, LLC-PK1 and Vero cells; assay: Cytotoxicity, summary over the cell line panel; format: cell-based; conditions: highest tested concentration of 50 µg/mL; most of the cells
Procedure: as §7

[20] = Cytotoxicity, Neutral Red, BT-549; format: cell-based; conditions: human, BT-549 breast ductal carcinoma cells, Na = not active up to 50 µg/mL
Procedure: as §7

[21] = Solubility in aqueous assay buffer; conditions: aqueous buffer of the radioligand binding assay

| Structure (SMILES) | IC50 [1] [µM] | IC50 [2] [µM] | IC50 [3] [µM] | IC50 [4] [µM] | IC50 [5] [µM] | Percent displacement, CB1 [6] [%] | IC50 [7] [µM] | IC50 [8] [µM] | IC50 [9] [µM] | Percent displacement, CB2 [10] [%] | Ki [10] [µM] | IC50 [11] [µM] | inhibition at 10 µM [12] [%] | IC50 [13] [µM] | IC50 [14] [µM] | Percent displacement, µ [15] [%] | Affinity for CB1 (in words) [16] | IC50 at 48 h [17] [µg/mL] | IC50 at 48 h [18] [µg/mL] | Cytotoxicity (in words) [19] | other results |
| --- | --- | --- | --- | --- | --- | --- | --- | --- | --- | --- | --- | --- | --- | --- | --- | --- | --- | --- | --- | --- | --- |
| C[C@@H]1C[C@@H]2c3c(O)cc(-c4cc5ccccc5o4)cc3OC(C)(C)[C@H]2C[C@H]1O [compound 4, machaeriol D] | 25 | 24 | 11 | > 50 | 25 | 4.5 | 22 | 18 | 20 | 81.5 | > 1.3 | 21 | 28.2 | 20 | 21 | 16.8 | – | – | – | – | Affinity for CB1 receptor (in words) ([6]; receptor displacement assay): little or no affinity |
| C[C@H]1CC[C@H]2[C@H](C1)c1c(O)cc(/C=C/c3ccccc3)cc1OC2(C)C [compound 1, machaeriol A] | 8.5 | 11 | 13.7 | > 50 | 7 | 18.4 | 14 | 8.5 | 10.7 | 24.4 | – | 8.2 | 1.8 | 11.9 | 12 | 52.9 | insignificant affinity; also recorded: did not show any affinity | – | – | – | – |
| C=C(C)[C@H]1CC[C@H](C)C[C@@H]1c1c(O)cc(/C=C/c2ccccc2)cc1O [compound 5, machaeridiol A] | 11.8 | 10 | 4.5 | > 50 | > 50 | 7.8 | 10.5 | 9.5 | 8.1 | 65.4 | > 1.77 | 11 | 43.3 | 3.5 | 11 | 45.6 | – | > 50 | > 50 | inactive | IC50 at 48 h [20]: > 50 µg/mL; Ki [12]: 9.41 ± 1.02 µM; solubility [21]: < 33.3 µM; Ki [15]: 16.8 ± 3.31 µM |
| C=C(C)[C@H]1CC[C@H](C)C[C@@H]1c1c(O)cc(-c2cc3ccccc3o2)cc1O [compound 7, machaeridiol C] | 7.2 | 8.7 | 2.5 | > 50 | 12 | – | 11.2 | 6.8 | 2 | 57.9 | > 1.11 | 8.8 | 26.6 | > 50 | 6.7 | 31.7 | – | > 50 | > 50 | inactive | IC50 at 48 h [20]: 47 µg/mL (≈ 130 µM); Δ pKi [12]: 4.91; Ki [12]: 12.2 ± 1.19 µM; solubility [21]: < 33.3 µM; Ki [15]: 4.01 ± 0.65 µM |
| C[C@H]1CC[C@H]2[C@H](C1)c1c(O)cc(-c3cc4ccccc4o3)cc1OC2(C)C [compound 2, machaeriol B] | 9.5 | 8.8 | 11 | > 50 | 7.3 | – | 11.3 | 7.7 | 8.4 | 13.7 | – | 6.9 | 61.7 | 9.1 | 10 | 37.6 | insignificant affinity; also recorded: did not show any affinity | – | > 50 | inactive | – |
